# What was measured:
# [1] = system: Vanilla planifolia Embryo Culture; experiment: Malic acid elicitation of embryo culture, HPLC analysis of intermediary metabolites; assay type: cell-based
# Method: (§1) Embryo cultures of Vanilla planifolia were established as described in Example 1. The procedures used to extract phenolics from the cultured embryo cells and to analyze the extracts by high pressure liquid chromatography (HPLC) were as described generally by Havkin-Frenkel et al., Plant Cell, Tissue and Organ Culture 45: 133–136 (1996).
# (§2) In the extraction procedure, 3 ml of 0.05 M sodium acetate buffer, pH 5.5, was added to about 1 gram of fresh culture. Samples were placed in boiling water for three minutes, then chilled. The cells were next homogenized in a Polytron blender for 1 minute at medium speed. A β-glucosidase solution was added to the homogenized cells to give a final concentration of 0.2%. Each sample was then incubated at 37° C. for 5 hr. Next, 17 ml of 95% ethanol was added, after which incubation at 37° C. was continued for an additional 24 hrs. The extract was then filtered and the ethanol evaporated. The filtrate was extracted twice using ethyl acetate, then extracted twice with ethyl acetate acidified to pH 3 with HCl. The extracts were combined and the ethyl acetate evaporated. The residue was dissolved in 1 ml of acidified methanol and filtered with a 0.45 μm syringe filter for HPLC analysis.
# (§3) Metabolite levels were measured with a Hewlett Packard 1090L or a Waters HPLC with a UV detector at 280 nm. The Waters HPLC was also equipped with a diode array detector to confirm the identities of the various intermediates, and the identities of the various intermediates were further confirmed by mass spectrometry. The column was a Supelco C-18 DB column of dimensions 250 mm×4.6 mm and a particle size of 5 μm. The mobile phase contained methanol and water, each of which was acidified with 1.25% acetic acid. The flow rate was 1 ml/min, with a solvent gradient as follows: […]
# Malic acid in concentrations of 0.1 to 3% was applied as a disodium salt to the growing medium. The culture was maintained for 1 to 15 days, then was extracted as described in Example 2.
# Cultures were grown in medium containing 3% malic acid by weight, for 7 days.
# Vanilla embryo culture = experiment: Feeding vanilla embryo culture with vanillin precursors, HPLC analysis of metabolites; assay type: cell-based, Vanilla planifolia
# Excerpt: We derived a scheme for the vanillin biosynthetic pathway by analysis of metabolites in cultured embryos and by experiments with feeding of precursors and intermediates. This scheme is shown in FIG. 1 and the experiments are described below.
# as §1, §2
# Extractions of metabolites from culture medium was similar to the cell extraction protocol. Five ml of spent medium was incubated in a β-glucosidase solution at 37° C. for 24 hrs. The medium was then extracted with ethyl acetate and the organic portions combined and evaporated, as for the cell extracts.
# as §3
# Results of selected experiments in which precursors or elicitors were added to vanilla cultures are set forth below. These experiments were performed in accordance with the procedures set forth in Examples 1–4.
# [2] = system: p-hydroxybenzaldehyde synthase; experiment: Substrate specificity of p-hydroxybenzaldehyde synthase (chain shortening enzyme), crude enzyme; assay type: biochemical, Vanilla planifolia; conditions: for Result: conversion of the compound as substrate to the expected chain-shortened product: crude enzyme, HPLC detection of product
# Method: Sterile plant material (2 g) 2–3 weeks after subculture, was homogenized in a cooled Potter glass homogenizer with 4 ml of 0.1 M HEPES buffer, pH 8.0, containing 10 mM DTT. The homogenate was next centrifuged at 4° C. at 15.000× g for 15 min. Resultant supernatant (4 ml) was filtered through Sephadex G-25 column (void volume 3–4 ml.) Equilibrated with Tris/HCL buffer pH7, containing 10 mM DTT. The column was washed with the same buffer and 2 ml fraction following the void volume was collected. This fraction was used as the crude enzyme source.
# The p-HO-aldehyde synthase activity was determined in the following mixture:
# crude enzyme extract: 10 μl
# (substrate=1.8 mM p-coumarate in 0.1 M Tris/HCl, pH 8.0 with 10 mM DTT)
# The mixture was incubated for 10–60 min (for longer incubation times, the activity was not proportional with time) at 35° C. and next, the reaction stopped by addition of 200 μl of acidified methanol (10% acetic acid in methanol). The slurry was passed through 0.45 μm filter and the filtrate (50 μl) injected into HPLC Bio-sil 18 HL 90-5 column (Reversed phase, 250 mm×4.6 mm). […] The eluate was monitored at 280 nm and retention time of the reaction product was compared to retention time of the standard compounds (benzaldehyde, p-HO-benzaldehyde, vanillin, protocatechuic aldehyde, p-coumaric acid, caffeic acid, ferulic acid, coniferyl aldehyde). The results were quantified using LKB Bromma 2221 Integrator.
# As a potential substrates for chain shortening enzyme the following compounds were tested: […]
# [3] = system: alcohol dehydrogenase from Vanilla planifolia embryo culture (vanillyl alcohol dehydrogenase, VAD); experiment: Substrate specificity of vanillyl alcohol dehydrogenase (VAD); assay type: biochemical; conditions: for Activity with the compound as substrate, NADH: cofactor NADH
# Method: We have purified and characterized the activity of VAD that catalyze the reduction of vanillin to vanillyl alcohol. The enzyme was identified as an NADH or NADPH-dependent alcohol dehydrogenase. The purification protocol was as set forth below.
# Crude enzyme extract: Tissue was homogenized in 0.05 M actetate-Na buffer pH 4.0 (in proportion, 1 g of the tissue and 5 ml of the buffer) in an ice bath, using Polytrone homogenizer, at 20,000 revolutions of the blade per min. The homogenate was centrifuged at 13000 g for 15 min at 4° C. and the supernatant served as the crude enzyme source.
# Ammonium sulfate fractionation and molecular sieving: Crude enzyme extract (100 ml) was supplied with ammonium sulfate in an ice bath up to 60% of saturation (44.4 g of Ammonium sulphate per 100 ml). The precipitate was centrifuged and discarded. The supernatant was supplied with ammonium sulfate up to 90% of saturation (total 64.6 g per 100 ml of crude extract). The precipitate was collected (10 min centrifugation at 10,000 g), dissolved in 7 ml of extraction buffer and subjected to molecular sieving at Sephacryl S-300 High Load Column (LKB Pharmacia) 2.6×60 cm, in 0.1 M pH 4.0 acetate-Na buffer. The flow rate was adjusted to 1 ml/min and 5 ml fractions were collected. The protein elution profile was monitored at 280 nm. Five fractions (of a total of 50) containing dehydrogenase activity (130–155 ml of the column eluate) were collected.
# The column was developed with 0.5 M Tris/HCL buffer pH 7.4 in 0.0–1.0 M NaCl gradient (total gradient volume—70 ml) and 2.5 ml fractions were collected. Vanillyl alcohol dehydrogenase was released from the column between 0.3–0.4 M NaCl. Fractions containing VAD activity were dialysed overnight against 0.05 M caetate-Na buffer pH 4.0 and concentrated up to 50 times using Minicon concentrating filters (Amicon). […]
# [4] = 3% malic acid by weight in medium, 7 days
smiles,measurement,setting,value
"O=C(O)CC(O)C(=O)O (centres unmarked) [Malic Acid, malic acid]",BA content of culture,[1]; [4],0.02% of Dry Weight
same,HBA content of culture,[1]; [4],3.60% of Dry Weight
same,HMBA (vanillyl alcohol) content of culture,[1]; [4],0.700% of Dry Weight
same,HY content of culture,[1]; [4],0.050% of Dry Weight
same,PC content of culture,[1]; [4],0.20% of Dry Weight
same,PROALD content of culture,[1]; [4],0.025% of Dry Weight
same,VN (vanillin) content of culture,[1]; [4],0.072% of Dry Weight
same,stimulation of vanillin production relative to standard conditions,"[1]; 3% malic acid by weight, 7 days, embryo cultures",more than tenfold
same,vanillin yield,"[1]; 3% malic acid, embryo cultures, increase from 5",72 mg/100 g tissue
same,effect on production/accumulation of vanillin and vanillyl alcohol,"[1]; malic acid 0.1 to 3% as disodium salt, 1 to 15 days",induced the production/accumulation of vanillin and vanillyl alcohol
"O=C(O)/C=C/c1ccc(O)cc1 [CA, p-coumaric acid]",CA (p-coumaric acid) content of culture,Vanilla embryo culture; precursor fed at 1 mM,220 mg/100 g dry wt.
same,HBA (p-hydroxybenzyl alcohol) content of culture,Vanilla embryo culture; precursor fed at 1 mM,13000 mg/100 g dry wt.
same,"PRO-ALD (3,4-dihydroxybenzaldehyde) content of culture",Vanilla embryo culture; precursor fed at 1 mM,10 mg/100 g dry wt.
same,VN (vanillin) content of culture,Vanilla embryo culture; precursor fed at 1 mM,0.01 mg/100 g dry wt.
same,VN ALC (vanillyl alcohol) content of culture,Vanilla embryo culture; precursor fed at 1 mM,10 mg/100 g dry wt.
same,specificity of the tested enzyme towards substrate,[2],very high specificity
same,Result: conversion of the compound as substrate to the expected chain-shortened product,[2],positive
"O=C(O)/C=C/c1ccc(O)c(O)c1 [CAF, caffeic acid]",CA (p-coumaric acid) content of culture,Vanilla embryo culture; precursor fed at 2 mM,189 mg/100 g dry wt.
same,HBA (p-hydroxybenzyl alcohol) content of culture,Vanilla embryo culture; precursor fed at 2 mM,11350 mg/100 g dry wt.
same,"PRO-ALD (3,4-dihydroxybenzaldehyde) content of culture",Vanilla embryo culture; precursor fed at 2 mM,21 mg/100 g dry wt.
same,VN (vanillin) content of culture,Vanilla embryo culture; precursor fed at 2 mM,0.5 mg/100 g dry wt.
same,VN ALC (vanillyl alcohol) content of culture,Vanilla embryo culture; precursor fed at 2 mM,32 mg/100 g dry wt.
same,Result: conversion of the compound as substrate to the expected chain-shortened product,[2],negative
CC=O [Acetaldehyde],substrate preference of VAD,[3],lower
same,"Activity with the compound as substrate, NADH",[3],0.26 nmoles · gfwt^−1 · min^−1
"COc1cc(CO)ccc1O [VN. ALC., vanillyl alcohol]",CA (p-coumaric acid) content of culture,Vanilla embryo culture; precursor fed at 2 mM,206 mg/100 g dry wt.
same,HBA (p-hydroxybenzyl alcohol) content of culture,Vanilla embryo culture; precursor fed at 2 mM,10350 mg/100 g dry wt.
same,"PRO-ALD (3,4-dihydroxybenzaldehyde) content of culture",Vanilla embryo culture; precursor fed at 2 mM,1.1 mg/100 g dry wt.
same,VN (vanillin) content of culture,Vanilla embryo culture; precursor fed at 2 mM,8.5 mg/100 g dry wt.
same,VN ALC (vanillyl alcohol) content of culture,Vanilla embryo culture; precursor fed at 2 mM,882 mg/100 g dry wt.
O=CC=Cc1ccccc1 [Cinnamylaldehyde],"Activity with the compound as substrate, NADH",[3],0.00 nmoles · gfwt^−1 · min^−1
CCOc1cc(C=O)ccc1OC [4-methoxy-3-ethoxybenzaldehyde],"Activity with the compound as substrate, NADH",[3],0.00 nmoles · gfwt^−1 · min^−1
"COc1cc(/C=C/C(=O)O)ccc1O [FA, ferulic acid]",CA (p-coumaric acid) content of culture,Vanilla embryo culture; precursor fed at 25 mM,136 mg/100 g dry wt.
same,HBA (p-hydroxybenzyl alcohol) content of culture,Vanilla embryo culture; precursor fed at 25 mM,11007 mg/100 g dry wt.
same,"PRO-ALD (3,4-dihydroxybenzaldehyde) content of culture",Vanilla embryo culture; precursor fed at 25 mM,4.8 mg/100 g dry wt.
same,VN (vanillin) content of culture,Vanilla embryo culture; precursor fed at 25 mM,11.8 mg/100 g dry wt.
same,VN ALC (vanillyl alcohol) content of culture,Vanilla embryo culture; precursor fed at 25 mM,23.8 mg/100 g dry wt.
same,Result: conversion of the compound as substrate to the expected chain-shortened product,[2],negative

# Source: patent US7226783B1, “Vanillin production” (David Michael & Co., Inc., priority 1997, dated 2007)
